Four molecules from ChEMBL document CHEMBL1201862, “PubChem BioAssay data set” (2004) can be followed below.

Structures are written as SMILES.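 Briefly, cells in 96-well plates were exposed to five compound concentrations for 48 h, and endpoints were estimated by linear interpolation. GI50 is the concentration that inhibits growth by half.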 Active and inactive are the calls of the source. Rule as the data show it: active = GI50 up to about 1.1 µM and inactive = higher.

What all share (experiment): NCI-60 cell line screen, 48 h
The subject of assay [1] is 786-0.
Assay [2] has as its system A549.
For assay [3], the system named is ACHN.
Assay [4] deals with CCRF-CEM.
Assay [5] has as its system HCT-15.
Assay [6] has as its system K562.
Assay [7] relates to LOX IMVI.
For assay [8], the system named is M14.
Assay [9] concerns MDA-MB-435.
The subject of assay [10] is MDA-N.
Assay [11] relates to MOLT-4.
Assay [12] has as its system Malme-3M.
The test system of assay [13] is NCI-H522.
The test system of assay [14] is SK-MEL-28.
Assay [15] concerns SN12C.
The test system of assay [16] is SNB-75.
Assay [17] deals with SR.
The subject of assay [18] is SW-620.
Assay [19] has as its system U-251.

As to `O=C(O)c1cccc(/[As]=[As]\c2cccc(C(=O)O)c2)c1` (stereo not given), the GI50 in assay [1] was 24.8 µM (inactive); in [2], > 100 µM (inactive); in assay [3], 73.3 µM (inactive); in assay [4], 21.9 µM (inactive); in [5], 36.3 µM; in assay [6], 34.7 µM (inactive). For the same molecule, the GI50 in assay [7] was 18.2 µM (inactive); in assay [8], 45.9 µM (inactive); in assay [9] it was 52.1 µM (inactive); in assay [10], 61.1 µM (inactive); in assay [11], 30.3 µM (inactive); in assay [12], 21.4 µM (inactive). Besides, the GI50 was 17.9 µM (inactive) in [13]; > 100 µM (inactive) in assay [14]; 38.2 µM (inactive) in [15]; 21.5 µM (inactive) in assay [16]; 28.7 µM (inactive) in assay [17]; 32.7 µM (inactive) in [18]. Further, the GI50 in assay [19] is 15.7 µM (inactive).

With `CC1=C2C(=O)c3ccccc3C(=O)[C@H]2C[C@@H](N2CCCC2=O)O1`, the GI50 in assay [1] is 25.2 µM (inactive); in assay [2], 43.1 µM (inactive); in assay [3] it was 90.6 µM (inactive); in [4], 32.4 µM (inactive); in assay [5], 49.2 µM; in assay [6], 49.8 µM (inactive). The GI50 in [7] is 20.2 µM (inactive); in assay [8], 14.7 µM (inactive); in [9], 18.5 µM (inactive); in assay [10] it was 16.4 µM (inactive); in [11], 32.1 µM (inactive); in [12], 17.4 µM (inactive). Moreover, the GI50 in assay [13] is 79.8 µM (inactive); in [14], 54.7 µM (inactive); in assay [15], 53.2 µM (inactive); in assay [16], 15.3 µM (inactive); in assay [17], 32.2 µM (inactive); in assay [18], 23.8 µM (inactive). In addition, the GI50 in assay [19] is 28 µM (inactive).

With `COC(=O)c1c2c(cc3c1CC1(C3)Cc3ccc4c(c3C1=O)CCC4)CCC2` (stereo not given), the GI50 is 3.51 µM (inactive) in assay [1]; 4.88 µM (inactive) in [2]; 5.15 µM (inactive) in assay [3]; 3.63 µM (inactive) in assay [4]; 3.58 µM in assay [5]; 2.2 µM (inactive) in assay [6]. Further, the GI50 in assay [7] was 3.9 µM (inactive); in assay [8], 3.03 µM (inactive); in assay [9] it was 0.6 µM (active); in [10] it was 0.608 µM (active); in assay [11], 4.41 µM (inactive); in [12] it was 3.39 µM (inactive). Moreover, the GI50 was 1.66 µM (inactive) in assay [13]; 6.67 µM (inactive) in [14]; 4.2 µM (inactive) in [15]; 4.33 µM (inactive) in [16]; 1.78 µM (inactive) in [17]; 4.07 µM (inactive) in assay [18]. Also, the GI50 in assay [19] is 3.33 µM (inactive).

As for `C[C@@H]1CC(=O)[C@@]2(C)[C@](O)(CCC3O[C@]32C)[C@@]12CC(c1ccoc1)OC2=O` (stereo not given in full), the GI50 is 75.7 µM (inactive) in assay [1]; > 100 µM (inactive) in assay [2]; 70.6 µM (inactive) in assay [3]; 20.5 µM (inactive) in assay [4]; 37.8 µM in [5]; 39.1 µM (inactive) in [6]. The GI50 in assay [7] was 35.2 µM (inactive); in assay [8] it was 72.4 µM (inactive); in assay [9], 42 µM (inactive); in assay [10], 33.5 µM (inactive); in assay [11], 23 µM (inactive); in assay [12] it was 50.7 µM (inactive). Moreover, the GI50 in assay [13] is 45.6 µM (inactive); in assay [14], > 100 µM (inactive); in assay [16] it was 23.7 µM (inactive); in assay [17] it was 30.3 µM (inactive); in assay [18] it was 37.4 µM (inactive); in [19], > 100 µM (inactive).
